Test results published in ChEMBL document CHEMBL1148759, “Isolation, characterization, and biological evaluation of syn and anti diastereomers of [(99m)Tc]technetium depreotide: a somatostatin receptor binding tumor imaging agent” (J Med Chem, 2007).
Where a SMILES comes first, the peptide text is derived from it. [ ]: non-standard residue; d: D form. The star is where a group is joined. X1 = NCCCC[C@H](NC(=O)[C@H](CS)NC(=O)[C@H](CCCCN)NC(=O)[C@@H](N)CNC(=O)C*)C(N)=O; NMeF = CN[C@@H](Cc1ccccc1)C(=O)O; hCys = N[C@@H](CCS)C(=O)O

Experiment: Displacement of [125I]somatostatin from SSTR in rat AR42J cells
Assay type: cell-based
Conditions: ar-42j

IC50: 7.4 nM
Compound: CC(C)[C@@H]1NC(=O)[C@H](CCCCN)NC(=O)[C@@H](Cc2c[nH]c3ccccc23)NC(=O)[C@H](Cc2ccc(O)cc2)NC(=O)[C@H](Cc2ccccc2)N(C)C(=O)[C@H](CCSCC(=O)NC[C@H](N)C(=O)N[C@@H](CCCCN)C(=O)N[C@@H](CS)C(=O)N[C@@H](CCCCN)C(N)=O)NC1=O [DEPREOTIDE] (cyclo([hCys](X1)[NMeF]Y[dW]KV))
